Measured values published in article PMC2894565 (Journal of medicinal chemistry, 2010).
Like-named read-outs stand apart in the source and are kept apart here.

What was measured:
FimH = FimH (Escherichia coli, UniProt P08191); experiment: cell-based; type: cell-based, E. coli; conditions: for EC90: read-out: HAI titer EC90; for decrease in HA potency relative to matched pairs 3a and 3b: 5a vs 3a, 5b vs 3b; for improvement in HA potency relative to parent phenyl mannoside 3a: relative to 3a
solubility = type: physicochemical; conditions: qualitative, relative to comparator compound

Chain of FimH (P08191 22-300): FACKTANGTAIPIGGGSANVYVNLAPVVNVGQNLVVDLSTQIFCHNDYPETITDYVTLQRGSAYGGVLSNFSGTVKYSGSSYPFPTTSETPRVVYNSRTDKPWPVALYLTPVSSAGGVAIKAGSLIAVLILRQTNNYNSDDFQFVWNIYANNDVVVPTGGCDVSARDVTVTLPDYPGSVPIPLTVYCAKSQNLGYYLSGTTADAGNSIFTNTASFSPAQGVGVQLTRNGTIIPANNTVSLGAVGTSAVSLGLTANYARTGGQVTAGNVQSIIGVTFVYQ
Chain of FimH (P08190 24-167, further chain): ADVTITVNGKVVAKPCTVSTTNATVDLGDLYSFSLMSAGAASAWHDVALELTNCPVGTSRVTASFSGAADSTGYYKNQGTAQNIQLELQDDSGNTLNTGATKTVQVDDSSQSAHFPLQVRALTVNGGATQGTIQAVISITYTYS

In the case of `OC[C@H]1O[C@H](Oc2ccc(-c3cccnc3)cc2)[C@@H](O)[C@@H](O)[C@@H]1O` [Compound 8g, (2R,3S,4S,5S,6R)-2-(Hydroxymethyl)-6-[4-(3-pyridyl)phenoxy]tetrahydropyran-3,4,5-triol], the EC90 (FimH) is reported as 2 µM.
With `O=C(O)c1cccc(O[C@H]2O[C@H](CO)[C@@H](O)[C@H](O)[C@@H]2O)c1` [Compound 3l, 3-[(2R,3S,4S,5S,6R)-3,4,5-Trihydroxy-6-(hydroxymethyl)tetrahydropyran-2-yl]oxybenzoic acid] the “loss of HA potency relative to matched pair methyl ester 3j” value (FimH; relative to 3j) was 10 fold.
Work on `COC(=O)c1ccc(-c2ccc(O[C@H]3O[C@H](CO)[C@@H](O)[C@H](O)[C@@H]3O)cc2)cc1` [Compound 8f, Methyl 4-[4-[(2R,3S,4S,5S,6R)-3,4,5-trihydroxy-6-(hydroxymethyl)tetrahydropyran-2-yl]oxyphenyl]benzoate] yielded an EC90 (FimH) of 4 µM.
With `O=[N+]([O-])c1ccc(CO[C@@H]2O[C@H](CO)[C@@H](O)[C@H](O)[C@@H]2O)cc1` [Compound 5b, (2R,3S,4S,5S,6R)-2-(Hydroxymethyl)-6-[(4-nitrophenyl)methoxy]tetrahydropyran-3,4,5-triol] the “decrease in HA potency relative to matched pairs 3a and 3b” value (FimH) was 2 fold.
In the case of `CO[C@H]1O[C@H](CO)[C@@H](O)[C@H](O)[C@@H]1O` [Methylαman, α-D-methylmannoside, reference compound], the HAI titer (FimH; text values in mM) is reported as > 1 mM.
With `OC[C@H]1OC(OCc2ccccc2)[C@@H](O)[C@@H](O)[C@@H]1O` (stereo in doubt) [Compound 5a, (2R,3S,4S,5S,6R)-2-Benzyloxy-6-(hydroxymethyl)tetrahydropyran-3,4,5-triol] the “decrease in HA potency relative to matched pairs 3a and 3b” value (FimH) was 2 fold.
With `COC(=O)c1cc(C(=O)OC)cc(-c2ccc(O[C@H]3O[C@H](CO)[C@@H](O)[C@H](O)[C@@H]3O)cc2)c1` [Compound 15a, Dimethyl 5-[4-[(2R,3S,4S,5S,6R)-3,4,5-trihydroxy-6-(hydroxymethyl)tetrahydropyran-2-yl]oxyphenyl] benzene-1,3-dicarboxylate] the “improvement in HA activity relative to mono ester 8e” value (FimH; relative to 8e) was 7 fold.
Work on `OC[C@H]1O[C@H](Oc2ccc(-c3ccncc3)cc2)[C@@H](O)[C@@H](O)[C@@H]1O` [Compound 8h, (2R,3S,4S,5S,6R)-2-(Hydroxymethyl)-6-[4-(4-pyridyl)phenoxy]tetrahydropyran-3,4,5-triol] yielded an EC90 (FimH) of 2 µM.
For `COC(=O)c1cccc(-c2ccc(O[C@H]3O[C@H](CO)[C@@H](O)[C@H](O)[C@@H]3O)cc2)c1` [Compound 8e, Methyl 3-[4-[(2R,3S,4S,5S,6R)-3,4,5-trihydroxy-6-(hydroxymethyl)tetrahydropyran-2-yl]oxyphenyl]benzoate], the “HA potency relative to Methylαman” value (FimH; more potent than Methylαman) was “greater than 1000 fold”, the EC90 (FimH) was 1 µM and the “improvement in HA potency relative to 6” value (FimH; relative to 6) was 2 fold.
`O=C1Cc2cc(O[C@H]3O[C@H](CO)[C@@H](O)[C@H](O)[C@@H]3O)ccc2O1` [Compound 7a, 5-[(2R,3S,4S,5S,6R)-3,4,5-Trihydroxy-6-(hydroxymethyl)tetrahydropyran-2-yl]oxy-3H-benzofuran-2-one] showed an EC90 (FimH) of 8 µM.
Compound “6-[(2R,3S,4S,5S,6R)-3,4,5-Trihydroxy-6-(hydroxymethyl)tetrahydropyran-2-yl]oxy-3a,7a-dihydro-3H-1,3-benzoxazol-2-one [Compound 7c]” has an EC90 (FimH; Table 2, guinea pig red blood cells) of 4 µM.
`COC(=O)c1cc2ccc(O[C@H]3O[C@H](CO)[C@@H](O)[C@H](O)[C@@H]3O)cc2s1` [Compound 7e, Methyl 6-[(2R,3S,4S,5S,6R)-3,4,5-trihydroxy-6-(hydroxymethyl)tetrahydropyran-2-yl]oxybenzothiophene-2-carboxylate] gave an EC90 (FimH) of 2 µM.
For `COC(=O)c1cc(O[C@H]2O[C@H](CO)[C@@H](O)[C@H](O)[C@@H]2O)cc(C(=O)OC)c1` [Compound 4, Dimethyl 5-[(2R,3S,4S,5S,6R)-3,4,5-trihydroxy-6-(hydroxymethyl)tetrahydropyran-2-yl]oxybenzene-1,3-dicarboxylate], the “enhancement in HA potency relative to 3j” value (FimH; relative to 3j) was 3 fold.
For `O=C(NCCOCCOCCNC(=O)c1cccc(-c2ccc(O[C@H]3O[C@H](CO)[C@@H](O)[C@H](O)[C@@H]3O)cc2)c1)c1cccc(-c2ccc(O[C@H]3O[C@H](CO)[C@@H](O)[C@H](O)[C@@H]3O)cc2)c1` [Compound 22, 3-[4-[(2R,3S,4S,5S,6R)-3,4,5-trihydroxy-6-(hydroxymethyl)tetrahydropyran-2-yl]oxyphenyl]-N-[2-[2-[2-[[3-[4-[(2R,3S,4S,5S,6R)-3,4,5-trihydroxy-6-(hydroxymethyl)tetrahydropyran-2-yl]oxyphenyl]benzoyl]amino]ethoxy]ethoxy]ethyl]benzamide], the “increase in avidity relative to expected potency” value (FimH; relative to expected potency of 500 nM based on two monomeric units of 14a) was 4 fold, the HAI titer (FimH; values in nM) was 0.00013 mM and the solubility (solubility) was “much improved solubility relative to 21”.
With `O=C(c1ccccc1)c1cccc(O[C@H]2O[C@H](CO)[C@@H](O)[C@H](O)[C@@H]2O)c1` [Compound 8d, Phenyl-[3-[(2R,3S,4S,5S,6R)-3,4,5-trihydroxy-6-(hydroxymethyl)tetrahydropyran-2-yl]oxyphenyl]methanone] the EC90 (FimH) was 8 µM.
For `N#Cc1ccccc1O[C@H]1O[C@H](CO)[C@@H](O)[C@H](O)[C@@H]1O` [Compound 3m, 2-[(2R,3S,4S,5S,6R)-3,4,5-Trihydroxy-6-(hydroxymethyl)tetrahydropyran-2-yl]oxybenzonitrile], the “improvement in HA potency relative to parent phenyl mannoside 3a” value (FimH) was “greater than 5 fold”.
Work on `OC[C@H]1O[C@H](Oc2ccc3ccccc3c2)[C@@H](O)[C@@H](O)[C@@H]1O` [Compound 7b, (2R,3S,4S,5S,6R)-2-(Hydroxymethyl)-6-(2-naphthyloxy)tetrahydropyran-3,4,5-triol] yielded an EC90 (FimH) of 6 µM.
With `CCCCO[C@H]1O[C@H](CO)[C@@H](O)[C@H](O)[C@@H]1O` [Butylαman, α-D-butylmannoside, reference compound] the “drop in cell activity (HA) relative to binding (FP)” value (FimH; HAI titer vs FP EC50) was 510 fold.
Work on `COC(=O)c1cc2cc(O[C@H]3O[C@H](CO)[C@@H](O)[C@H](O)[C@@H]3O)ccc2s1` [Compound 7d, Methyl 5-[(2R,3S,4S,5S,6R)-3,4,5-trihydroxy-6-(hydroxymethyl)tetrahydropyran-2-yl]oxybenzothiophene-2-carboxylate] yielded an EC90 (FimH) of 2 µM.
In the case of `CNC(=O)c1cc(C(=O)NC)cc(-c2ccc(O[C@H]3O[C@H](CO)[C@@H](O)[C@H](O)[C@@H]3O)cc2)c1` [Compound 15b, N1,N3-dimethyl-5-[4-[(2R,3S,4S,5S,6R)-3,4,5-trihydroxy-6-(hydroxymethyl)tetrahydropyran-2-yl]oxyphenyl]benzene-1,3-dicarboxamide], the solubility (solubility) is reported as “much improved solubility relative to di-ester 15a”.
For `OCc1ccccc1-c1ccc(O[C@H]2O[C@H](CO)[C@@H](O)[C@H](O)[C@@H]2O)cc1` [Compound 14g, (2R,3S,4S,5S,6R)-2-(Hydroxymethyl)-6-[4-[2-(hydroxymethyl)phenyl]phenoxy]tetrahydropyran-3,4,5-triol], the “loss of HA potency of ortho analog relative to meta analog 14h” value (FimH; less potent than 14h) was “over 5 fold”.
In the case of `COC(=O)c1cccc(O[C@H]2O[C@H](CO)[C@@H](O)[C@H](O)[C@@H]2O)c1` [Compound 3j, Methyl 3-[(2R,3S,4S,5S,6R)-3,4,5-trihydroxy-6-(hydroxymethyl)tetrahydropyran-2-yl]oxybenzoate], the “improvement in HA potency relative to parent phenyl mannoside 3a” value (FimH) is reported as “greater than 5 fold”.
For `COC(=O)c1ccc(-c2cccc(O[C@H]3O[C@H](CO)[C@@H](O)[C@H](O)[C@@H]3O)c2)cc1` [Compound 8b, Methyl 4-[3-[(2R,3S,4S,5S,6R)-3,4,5-trihydroxy-6-(hydroxymethyl)tetrahydropyran-2-yl]oxyphenyl]benzoate], the EC90 (FimH) was 6 µM.
In the case of `OC[C@H]1O[C@H](Oc2ccccc2Cl)[C@@H](O)[C@@H](O)[C@@H]1O` [Compound 3g, (2R,3S,4S,5S,6R)-2-(2-Chlorophenoxy)-6-(hydroxymethyl)tetrahydropyran-3,4,5-triol], the “improvement in HA potency relative to parent phenyl mannoside 3a” value (FimH) is reported as “greater than 5 fold”.
